These results are taken from US5493024A, “3,4,N-trisubstituted-4,5-dihydro-1H-pyrazole-1-carboxamides and their use as insectioides” (DowElanco, priority 1993, dated 1996).

≈ marks a conversion by molar mass, not a printed value.

For series [1], the system named is tobacco budworm. In words: Effect on tobacco budworm, contact and ingestion test (treated cotton leaf discs). The class given is in vivo, H. virescens (tobacco budworm). The settings on record: second-instar larvae, sprayed cotton leaf discs, 5 days at 25° C; for LC50: Heliothis virescens, foliar, 120 h, read-out: TOBACCO BUDWORM Contact and Ingestion Test LC50, ppm. The procedure:
(§1) Effect on Tobacco Budworm and Beet Armyworm by Leaf Ingestion and/or Contact.
(§2) Stock solutions of the compounds to be tested having a known concentration were prepared by dissolving weighed amounts in a 90:10 mixture of high-purity acetone and ethanol and these solutions were diluted with distilled water (containing 0.05 percent by weight Tween 20™ surfactant) to obtain the spray solutions of known concentration employed. Greenhouse-grown cotton leaves of uniform age were cut into 2.5 cm diameter discs and one disc was placed in the bottom of each of a number of 30 mL plastic cups. The cups were then sprayed by means of a track sprayer applying 0.055 mL of spray solution per cup. The leaf discs were allowed to dry and then a single second-instar H. virescens (tobacco budworm) or S. exigua (beet armyworm) larva was added to each cup and each cup was capped with a perforated plastic lid. Ten cups were prepared for each insect species and each application rate and five applications rates were usually run. Treated cups were stored for 5 days at 25° C. and were then graded for mortality. Untreated controls and positive controls (cypermethrin) were run simultaneously. The amount of test chemical required to kill half of the larvae (LD50) was calculated.

For series [2], the system named is beet armyworm. In words: Effect on beet armyworm, contact and ingestion test (treated cotton leaf discs). In kind it is in vivo, S. exigua (beet armyworm). The conditions noted are these: second-instar larvae, sprayed cotton leaf discs, 5 days at 25° C; for LC50: Spodoptera exigua, foliar, 120 h, read-out: BEET ARMYWORM Contact and Ingestion Test LC50, ppm. The procedure:
as §1, §2

In series [3] the test system is beet armyworm. Kind of series: Effect on beet armyworm, contact test (treated Teflon discs). In kind it is in vivo, S. exigua (beet armyworm). The settings on record: second-instar larvae, sprayed Teflon discs 24 hours, then 5 more days on untreated leaf, 25° C; for LC50: Spodoptera exigua, 144 h, read-out: BEET ARMYWORM Contact Test LC50, ppm. The procedure: (§3) Effect on Tobacco Budworm and Beet Armyworm by Contact.
(§4) Stock solutions of the compounds to be tested having a known concentration were prepared by dissolving weighed amounts in a 90:10 mixture of high-purity acetone and ethanol and these solutions were diluted with distilled water (containing 0.05 percent by weight Tween 20™ surfactant) to obtain the spray solutions of known concentration employed. Teflon™ discs 5 cm in diameter were placed in plastic petri dishes of slightly larger diameter and these dishes were sprayed by means of a track sprayer applying 0.104 mL of spray solution per cup. The Teflon™ discs were allowed to dry, a single second-instar H. virescens (tobacco budworm) or S. exigua (beet armyworm) larva was placed on each Teflon™ disc, and each disc was capped with a plastic lid. Ten Teflon™ discs were prepared for each application rate and five application rates were usually run. Treated discs were stored for 24 hours at 25° C. and then the Teflon™ disc was removed and replaced with an untreated cotton leaf disc. After 5 more days of storage at 25 ° C. the dishes were graded for mortality. Untreated controls and positive controls (cypermethrin) were run simultaneously. The amount of test chemical required to kill half of the larvae (LD50) was calculated.

Series [4] deals with tobacco budworm. In words: Effect on tobacco budworm, contact test (treated Teflon discs). The conditions noted are these: second-instar larvae, sprayed Teflon discs 24 hours, then 5 more days on untreated leaf, 25° C; for LC50: Heliothis virescens, 144 h, read-out: TOBACCO BUDWORM Contact Test LC50, ppm. The class given is in vivo, H. virescens (tobacco budworm). The procedure: as §3, §4

Consider `O=C(Nc1ccc(OC(F)(F)F)cc1)N1CC(c2cncnc2)C(c2ccc(F)cc2)=N1` (centres unmarked) [S, 4,5-Dihydro-3-(4-fluorophenyl)-4-(5-pyrimidinyl)-N-(4-trifluoromethoxyphenyl)-1H-pyrazole-1-carboxamide], for which the values for the LC50 in the series with tobacco budworm [1] and with beet armyworm [2] were 50 µg/mL (≈ 112 µM) and 490 µg/mL (≈ 1100 µM), respectively.
On to `O=C(Nc1ccc(C(F)(F)F)cc1)N1CC(c2ccc(C(F)(F)F)cn2)C(c2ccc(Cl)cc2)=N1` (centres unmarked) [B, 3-(4-Chorophenyl)-4,5-dihydro-N-(4-trifluoromethylphenyl)-4-(5-trifluoromethyl-2-pyridinyl)-1H-pyrazole-1-carboxamide], for which the LC50 with beet armyworm [3] is greater than 80 µg/mL; with tobacco budworm [1], 7.6 µg/mL (≈ 14.8 µM); with tobacco budworm [4], greater than 80 µg/mL; in the series with beet armyworm [2], 10 µg/mL (≈ 19.5 µM).
With `N#Cc1ccc(C2CN(C(=O)Nc3ccc(OC(F)(F)F)cc3)N=C2c2ccc(Cl)cc2)nc1` (centres unmarked) [N], the LC50 turned out to be 7.1 µg/mL (≈ 14.6 µM) in the series on beet armyworm [3], 1.5 µg/mL (≈ 3.09 µM) in the series with tobacco budworm [1], 18.3 µg/mL (≈ 37.7 µM) in the series with tobacco budworm [4] and 2.1 µg/mL (≈ 4.32 µM) in the series on beet armyworm [2].
Taken in the same sequence, the figures for `O=C(Nc1ccc(Cl)cc1)N1CC(c2ccc(C(F)(F)F)cn2)C(c2ccc(F)cc2)=N1` (centres unmarked) [I, N-(4-Chlorophenyl)-4,5-dihydro-3-(4-fluorophenyl)-4-(5-trifluoromethyl-2-pyridinyl)-1H-pyrazole-1-carboxamide] were less than 5 µg/mL, 1.3 µg/mL (≈ 2.81 µM), 49.7 µg/mL (≈ 107 µM) and 2.1 µg/mL (≈ 4.54 µM).
Turning to `O=C(Nc1ccc(OC(F)(F)F)cc1)N1CC(c2ccc(C(F)(F)F)cn2)C(c2ccc(Cl)cc2)=N1` (centres unmarked) [C, 3-(4-Chlorophenyl)-4,5-dihydro-N-(4-trifluoromethoxyphenyl)-4-(5-trifluoromethyl-2-pyridinyl)-1H-pyrazole-1-carboxamide], the LC50 with tobacco budworm [1] amounted to 9.1 µg/mL (≈ 17.2 µM); in the series with beet armyworm [2], 7.9 µg/mL (≈ 14.9 µM).
Regarding `O=C(Nc1ccc(C(F)(F)F)cc1)N1CC(c2cncc(Cl)n2)C(c2ccc(F)cc2)=N1` (centres unmarked) [Z, 4-(6-Chloro-2-pyrazinyl)-4,5-dihydro-3-(4-fluorophenyl)-N-(4-trifluoromethylphenyl)-1H-pyrazole-1-carboxamide], the LC50 was 75.8 µg/mL (≈ 163 µM) in the series with beet armyworm [3] and greater than 100 µg/mL in the series on beet armyworm [2].
As for `O=C(Nc1ccc(OC(F)(F)F)cc1)N1CC(c2cccnc2)C(c2ccccc2)=N1` (centres unmarked) [R, 4,5-Dihydro-3-phenyl-4-(3-pyridinyl)-N-(4-trifluoromethoxyphenyl)-1H-pyrazole-1-carboxamide], the LC50 in the series on tobacco budworm [1] is 186 µg/mL (≈ 436 µM); in the series with beet armyworm [2] it was greater than 400 µg/mL.
Taken in the same sequence, the figures for `O=C(Nc1ccc(OC(F)(F)F)cc1)N1CC(c2cnc(C(F)(F)F)nc2)C(c2ccc(F)cc2)=N1` (centres unmarked) [W, 4,5-Dihydro-3-(4-fluorophenyl)-N-(4-trifluoromethoxyphenyl)-4-(2-trifluoromethyl-5-pyrimidinyl)-1-H-pyrazole-1-carboxamide] were 6.1 µg/mL (≈ 11.9 µM) and 7.5 µg/mL (≈ 14.6 µM).
Taken in the same sequence, the figures for `O=C(Nc1ccc(OC(F)(F)F)cc1)N1CC(c2cnc3cc(Cl)ccc3c2)C(c2ccccc2)=N1` (centres unmarked) [Q, 4-(7-Chloro-3-quinolinyl)-4,5-dihydro-3-phenyl-N-(4-trifluoromethoxyphenyl)-1H-pyrazole-1-carboxamide] were 30.8 µg/mL (≈ 60.3 µM) and 13.4 µg/mL (≈ 26.2 µM).
Consider `O=C(Nc1ccc(OC(F)(F)F)cc1)N1CC(c2ccc3cc(Cl)ccc3n2)C(c2ccc(Cl)cc2)=N1` (centres unmarked) [O, 3-(4-Chlorophenyl)-4-(6-chloro-2-quinolinyl)-4,5-dihydro-N-(4-trifluoromethoxyphenyl)-1H-pyrazole-1-carboxamide], for which the LC50 with tobacco budworm [1] and in the series on beet armyworm [2] was greater than 200 µg/mL each time.
Turning to `O=C(Nc1ccc(C(F)(F)F)cc1)N1CC(c2cnc(C(F)(F)F)cn2)C(c2ccc(F)cc2)=N1` (centres unmarked) [Y, 4,5-Dihydro-3-(4-fluorophenyl)-N-(4-trifluoromethylphenyl)-4-(5-trifluoromethyl-2-pyrazinyl)-1H-pyrazole-1-carboxamide], the LC50 is 10.5 µg/mL (≈ 21.1 µM) in the series with beet armyworm [3] and greater than 25 µg/mL with beet armyworm [2].
Consider `O=C(Nc1ccc(OC(F)(F)F)cc1)N1CC(c2cc(C(F)(F)F)nc(C(F)(F)F)c2)C(c2ccccc2)=N1` (centres unmarked) [U, 4,5-Dihydro-4-(2,6-di(trifluoromethyl)-4-pyridinyl)-3-phenyl-N-(4-trifluoromethoxyphenyl)-1H-pyrazole-1-carboxamide], for which the results for the LC50 in the series on beet armyworm [3] and in the series with beet armyworm [2] were greater than 100 µg/mL and 37.9 µg/mL (≈ 67.4 µM), respectively.
Consider `O=C(Nc1ccc(OC(F)(F)F)cc1)N1CC(c2cccc(F)n2)C(c2ccc(F)cc2)=N1` (centres unmarked) [E, 4,5-Dihydro-3-(4-fluorophenyl)-4-(6-fluoro-2-pyridinyl)-N-(4-trifluoromethoxyphenyl)-1H-pyrazole-1-carboxamide], for which the median lethal concentration (LC50) with tobacco budworm [1] was 70.7 µg/mL (≈ 153 µM); with beet armyworm [2], 13.6 µg/mL (≈ 29.4 µM).
The matching figures for `O=C(Nc1ccc(OC(F)(F)F)cc1)N1CC(c2cncnc2)C(c2ccccc2)=N1` (centres unmarked) [J, 4,5-Dihydro-3-phenyl-4-(5-pyrimidinyl),N-(4-trifluoromethoxyphenyl)-1H-pyrazole-1-carboxamide]: 135 µg/mL (≈ 316 µM) and greater than 800 µg/mL.
Turning to `O=C(Nc1ccc(Cl)cc1)N1CC(c2ccc(C(F)(F)F)cn2)C(c2ccc(Cl)cc2)=N1` (centres unmarked) [D, 3-(4-Chlorophenyl)-N-(4-chlorophenyl)-4,5-dihydro-4-(5-trifluoromethyl-2-pyridinyl)-1H-pyrazole-1-carboxamide], the LC50 came to 12.6 µg/mL (≈ 26.3 µM) in the series with beet armyworm [3], 2.1 µg/mL (≈ 4.38 µM) in the series on tobacco budworm [1], 35.6 µg/mL (≈ 74.3 µM) in the series with tobacco budworm [4] and 1.8 µg/mL (≈ 3.76 µM) in the series with beet armyworm [2].
`O=C(Nc1ccc(C(F)(F)F)cc1)N1CC(c2ccc(Cl)nn2)C(c2ccc(Cl)cc2)=N1` (centres unmarked) [AA, 4-(6-Chloro-3-pyridazinyl)-3-(4-chlorophenyl)-4,5-dihydro-N-(4-trifluoromethylphenyl)-1H-pyrazole-1-carboxamide]: the results for the LC50 with beet armyworm [3] and in the series on beet armyworm [2] were 11.7 µg/mL (≈ 24.4 µM) and 20.3 µg/mL (≈ 42.3 µM), respectively.
As for `O=C(Nc1ccc(OC(F)(F)F)cc1)N1CC(c2cnc3ccc(Cl)cc3c2)C(c2ccccc2)=N1` (centres unmarked) [K, 4-(6-Chloro-3-quinolinyl)-4,5-dihydro-3-phenyl-N-(4-trifluoromethoxyphenyl)-1H-pyrazole-1-carboxamide], the LC50 in the series with tobacco budworm [1] is 70.7 µg/mL (≈ 138 µM); in the series on beet armyworm [2], 29.7 µg/mL (≈ 58.1 µM).
For the compound `O=C(Nc1ccc(SC(F)(F)F)cc1)N1CC(c2ccc(C(F)(F)F)cn2)C(c2ccc(F)cc2)=N1` (centres unmarked) [L, 4,5-Dihydro-3-(4-fluorophenyl)-4-(5-trifluoromethyl-2-pyridinyl)-N-((4-trifluoromethylthio)phenyl)-1H-pyrazol-1-carboxamide], the LC50 was greater than 80 µg/mL in the series on beet armyworm [3], 4.2 µg/mL (≈ 7.95 µM) with tobacco budworm [1], 63.5 µg/mL (≈ 120 µM) with tobacco budworm [4] and 7.9 µg/mL (≈ 14.9 µM) in the series on beet armyworm [2].
Turning to `CSc1ccc(NC(=O)N2CC(c3ccc(C(F)(F)F)cn3)C(c3ccc(Cl)cc3)=N2)cc1` (centres unmarked) [Compound A, 3-(4-Chlorophenyl)-4,5-dihydro-N-(4-(methylthio)phenyl)-4-(5-trifluoromethyl-2-pyridinyl)-1H-pyrazole-1-carboxamide], the 50% lethal concentration (LC50) in the series on tobacco budworm [1] was greater than 400 µg/mL; in the series with beet armyworm [2], 107 µg/mL (≈ 218 µM).
“4,5-Dihydro-3-(4-fluorophenyl)-4-(4-fluoro-5-trifluoromethyl-2-pyridinyl)- N-(4-trifluoromethoxyphenyl)-1H-pyrazole-1-carboxamide”: the “BEET ARMYWORM Contact Test LC50, ppm” value in the series on beet armyworm [3] (8640 min) is 7.6 ppm. Further, the “TOBACCO BUDWORM Contact and Ingestion Test LC50, ppm” value in the series with tobacco budworm [1] stood at 10.0 ppm. In the series with tobacco budworm [4] (8640 min), the “TOBACCO BUDWORM Contact Test LC50, ppm” value is recorded as 80 ppm. Moreover, the “BEET ARMYWORM Contact and Ingestion Test LC50, ppm” value in the series with beet armyworm [2] was determined as 5.2 ppm.
`O=C(Nc1ccc(OC(F)(F)F)cc1)N1CC(c2ccc3ccc(Cl)cc3n2)C(c2ccc(Cl)cc2)=N1` (centres unmarked) [P, 3-(4-Chlorophenyl)-4-(7-chloro-2-quinolinyl)-4,5-dihydro-N-(4-trifluoromethoxyphenyl)-1H-pyrazole-1-carboxamide]: the values for the 50% lethal concentration (LC50) with tobacco budworm [1] and in the series on beet armyworm [2] were 64.8 µg/mL (≈ 119 µM) and 40.6 µg/mL (≈ 74.4 µM), respectively.
Taken in the same sequence, the figures for `O=C(Nc1ccc(Cl)cc1)N1CC(c2cccc(F)n2)C(c2ccc(F)cc2)=N1` (centres unmarked) [F, N-(4-Chlorophenyl)-4,5-dihydro-3-(4-fluorophenyl)-4-(6-fluoro-2-pyridinyl)-1H-pyrazole-1-carboxamide] were 606 µg/mL (≈ 1470 µM) and greater than 800 µg/mL.
